These results are taken from patent US10145851B2, “Discovery and validation of cancer biomarkers using a protein analysis methodology to analyze specimens” (The Board of Trustees of the Leland Stanford Junior …, priority 2009, dated 2018).

The subject of test [1] is human leukemic cell line TF1. Nature of the test: NIA of TF1 cells before and after treatment with ON01910. The format is cell-based. As to the method:
Using a single antibody that recognizes both the phosphorylated and unphosphorylated isoforms of ERK, we can determine levels of each ERK isoform, and also percent phosphorylation of ERK. […] To determine if NIA can measure signaling changes during treatment with novel drugs, human leukemic cells were treated with a PLK-1 inhibitor, ON01910 (Onconova, Inc). […] MEK2 phosphorylation decreased by 20% after ON01910 treatment. […] Treatment with ON01910 altered phosphorylation of signaling proteins in TF1 cells.

The test system of test [2] is phosphorylation of STAT3/5. Nature of the test: NIA/FACS of tumor cells of lymphoma patients treated with atorvastatin. The format is in vivo, human. The text has this: FIG. 5A-5C. NIA detected decrease in oncoproteins upon treatment with biologic response modifying therapeutic agent. (FIG. 5A) Schematic for the use of NIA to assess proteomic changes in clinical tumor specimens. Patients undergo pretreatment tumor sampling at baseline and again after 8 d of treatment with atorvastatin. (FIG. 5B) NIA analysis of tumor cells for changes in pSTAT3 and pSTAT5. (FIG. 5C) NIA quantification of pSTAT3 and pSTAT5±s.e.m. Samples were run in triplicate.
Predicted pl's were calculated using Scansite.
Phosphorylation of STAT3/5 decreased in lymphoma patients treated with atorvastatin. Tumor cells were sampled from lymphoma patients day 1 and day 8 of atorvastatin treatment.

Another test has as its system mouse model of lymphoma. The note with it: associated with specific changes in oncoprotein signaling; cited from earlier work.
A further test deals with K562 human CML cell line. Nature of the test: NIA of K562 CML cells treated with imatinib in vitro. The format is cell-based. Set-up: activated caspase-3 associated with apoptosis: dose or concentration left out as unconfirmed. As to the method:
The NIA experiments were performed using a Firefly™ or CB1000™ instrument (Cell Biosciences). Briefly, for each capillary analysis, 4 nanoliters of 10 mg/ml lysate were diluted to 0.2 mg/ml in 200 nanoliters HNG-based lysis buffer [20 mM Hepes pH 7.5, 25 mM NaCl, 0.1%, 10% glycerol, Sigma Phosphatase Inhibitor Cocktail 1, Calbiochem Protease Inhibitor] or 200 nanoliters Bicine/CHAPS lysis buffer. 200 nanoliters sample mix containing internal pl standards were added. The Firefly system first performed a charge-based separation (isoelectric focusing) in a 5 cm long, 100 micron inner-diameter capillary. Predicted pl's were calculated using Scansite. Each sample was run on a panel of different pH gradients (3-10, 5-9) to optimize the resolution of different peak patterns. After separation and photo-activated in-capillary immobilization, proteins were detected with antibodies: MYC protein expression was detected using the C-19 rabbit polyclonal antibody that recognizes mouse and human MYC (Santa Cruz Biotechnology). BCL2 protein expression was detected using the clone 124 mouse monoclonal antibody that recognizes human BCL2 (Dako Laboratories). Total ERK1/2 protein expression was detected using a rabbit polyclonal antibody that recognizes mouse and human ERK1/2 (Upstate). Phospho-ERK 1/2 protein expression was detected using a mouse monoclonal antibody that recognizes both mouse and human pERK 1/2 (Cell Signaling). Additional antibodies used were: activated caspase 3 (Cell Signaling), MEK1 (Upstate), pMEK1 (Novus), MEK2 (Abcam), pSTAT3 (Cell Signaling), pSTAT5 (Cell Signaling), pJNK (Cell Signaling), HSP70 (Novus).
Quantitation of the peaks is performed using peak analysis software. The start and end of each peak, and a flat baseline were manually selected. The area of each peak was calculated by dropping verticals to the baseline at the peak start and end, and summing the area between the start and endpoints. […] The areas under different peaks within a single tracing represented various ERK isoforms. […]

Setting [3] is: TF1 cells after 24 hr of treatment.

The structures appear in SMILES notation. “Also recorded” adds a separate entry of the source. Counter-ions that a name gives are not always drawn.

With `COc1cc(OC)c(/C=C/S(=O)(=O)Cc2ccc(OC)c(NCC(=O)O)c2)c(OC)c1` [ON01910], the MEK2 phosphorylation decrease in test [1] (TF1 cell line after ON01910 treatment) amounted to 20%. In test [1] (setting [3]), the “phosphorylation of JNK” value was “increased phosphorylation” and the “phosphorylation of MEK2” value was “decreased phosphorylation”.

With `CC(C)c1c(C(=O)Nc2ccccc2)c(-c2ccccc2)c(-c2ccc(F)cc2)n1CC[C@@H](O)C[C@@H](O)CC(=O)O` [atorvastatin], in test [2] (after eight days of treatment, NIA), the “phosphorylation of STAT3/5” value is given as “detectable decreases; also recorded: decreased”. Further, in test [2] (day 1 and day 8 of treatment, NIA and FACS), the “STAT3 and STAT5 phosphorylation in CD20 positive cells” value is recorded as “dramatic decrease”. In addition, the tumor regression entry in the test on mouse model of lymphoma is recorded as “causes tumor regression”.

As for `Cc1ccc(NC(=O)c2ccc(CN3CCN(C)CC3)cc2)cc1Nc1nccc(-c2cccnc2)n1` [imatinib, imatinib mesylate], the “phosphorylation of STAT3/5, JNK, MEK1 and MEK2” value with K562 human CML cell line (K562, imatinib final concentration 10 mM in vitro, 0 h, 4 h and 20 h) is on record as “changes in phosphorylation”. For the same compound, in the test on K562 human CML cell line (K562, imatinib in vitro, 0 h, 4 h and 20 h), the “activated caspase-3 associated with apoptosis” value is given as “expected increase”. Further, the “specific ERK2 phospho-isomer (peak 3)” value with K562 human CML cell line (K562, imatinib in vitro, 24 hours) is “decrease; also recorded: change in phospho-ERK”.
